Each molecule was assayed on PMS1 (assay: Mini-Gene Reporter Assay—PMS1 (firefly luciferase mini-gene reporter transiently transfected into HEK293 cells)). Conditions: Homo sapiens; at 5 uM; mini-gene firefly luciferase reporter in HEK293 cells; read-out: PMS1 % Effect at 5 uM.
Assay type: cell-based
Method in brief: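 Luminescence (RLU) read-out of exon inclusion: compound dilutions, tested in duplicate, act on transiently transfected HEK293 cells carrying a firefly luciferase reporter fused downstream of the PMS1 skipped-exon region. Potency derived by Levenberg-Marquardt curve fitting, with percent effect at 5 μM.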
In the case of `CCOc1cn2nc(C)cc2cc1C(=O)Nc1cnc(NC[C@@H]2C[C@H](F)CN2)cn1` [Compound 539], the activation at 5 µM is reported as less than 50%.
For `CCCC[C@H]1CN(c2cnc(NC(=O)c3cc4cc(C)nn4cc3OCC)cn2)CCN1` [Compound 540], the activation at 5 µM was greater than 75%.
Work on `CCOc1cn2nc(C)cc2cc1C(=O)Nc1cnc(N2CC(N3CCNCC3)C2)cn1` [Compound 541] yielded an activation at 5 µM of less than 50%.
`CCOc1cn2nc(C)cc2cc1C(=O)Nc1cnc(N2CCC3(CC2)CNCCO3)cn1` [Compound 542] showed an activation at 5 µM of less than 50%.
`CCOc1cn2nc(C)cc2cc1C(=O)Nc1cnc(N2CCCC(CCN)C2)cn1` (stereo not drawn) [Compound 544] gave an activation at 5 µM of less than 50%.
Molecule `CCOc1cn2nc(C)cc2cc1C(=O)Nc1cnc(N2CCOC3(CCNCC3)C2)cn1` [Compound 545] has an activation at 5 µM of less than 50%.
Work on `CCOc1cn2nc(C)cc2cc1C(=O)Nc1cnc(N2CCC(NC)C2)cn1` (stereo not drawn) [Compound 546] yielded an activation at 5 µM greater than 75%.
For `CCOc1cn2nc(C)cc2cc1C(=O)Nc1cnc(N2C[C@H]3CNC[C@H]3C2)cn1` [Compound 547], the activation at 5 µM was greater than 75%.
For `CCOc1cn2nc(C)cc2cc1C(=O)Nc1cnc(N2CC3(CCNCC3)C2)cn1` [Compound 548], the activation at 5 µM was greater than 75%.
Work on `CCOc1cn2nc(C)cc2cc1C(=O)Nc1cnc(N2C[C@@H]3C[C@H]2CN3)cn1` [Compound 549] yielded an activation at 5 µM greater than 75%.
`CCOc1cn2nc(C)cc2cc1C(=O)Nc1cnc(NCC2CCNC2)cn1` (stereo not drawn) [Compound 550] gave an activation at 5 µM greater than 75%.
`CCOc1cn2nc(C)cc2cc1C(=O)Nc1cnc(N(C)C2CCNC2)cn1` (stereo not drawn) [Compound 551] showed an activation at 5 µM greater than 75%.
Molecule `CCOc1cn2nc(C)cc2cc1C(=O)Nc1cnc(NCCNC)cn1` [Compound 552] has an activation at 5 µM greater than 75%.
`CCOc1cn2nc(C)cc2cc1C(=O)Nc1cnc(N2CCC(NC)CC2)cn1` [Compound 553] showed an activation at 5 µM greater than 75%.
`CCOc1cn2nc(C)cc2cc1C(=O)Nc1cnc(N[C@H]2CCCNC2)cn1` [Compound 554] was tested, and the activation at 5 µM was greater than 75%.
With `CCOc1cn2nc(C)cc2cc1C(=O)Nc1cnc(NCC2CCNCC2)cn1` [Compound 555] the activation at 5 µM was less than 50%.
Work on `CCOc1cn2nc(C)cc2cc1C(=O)Nc1cnc(N2CCC(N)C2)cn1` (stereo not drawn) [Compound 556] yielded an activation at 5 µM greater than 75%.
Molecule `CCOc1cn2nc(C)cc2cc1C(=O)Nc1cnc(N2CCC(N)CC2)cn1` [Compound 557] has an activation at 5 µM greater than 75%.
Molecule `CCOc1cn2nc(C)cc2cc1C(=O)Nc1cnc(N(C)C2CCNCC2)cn1` [Compound 558] has an activation at 5 µM greater than 75%.
With `CCOc1cn2nc(C)cc2cc1C(=O)Nc1cnc(NC2CCNCC2)cn1` [Compound 559] the activation at 5 µM was greater than 75%.
For `CCOc1cn2nc(C)cc2cc1C(=O)Nc1cnc(N2CCCNCC2)cn1` [Compound 561], the activation at 5 µM was greater than 75%.
`CCOc1cn2nc(C)cc2cc1C(=O)Nc1cnc(NCC2C=CCN2)nc1` (stereo not drawn) [Compound 562] gave an activation at 5 µM of less than 50%.
`CCOc1cn2nc(C)cc2cc1C(=O)Nc1cnc(NCCCC2CCCN2)nc1` (stereo not drawn) [Compound 563] was tested, and the activation at 5 µM was less than 50%.
In the case of `CCOc1cn2nc(C)cc2cc1C(=O)Nc1cnc(N2CCC(N)(CC)CC2)nc1` [Compound 564], the activation at 5 µM is reported as less than 50%.
`CCOc1cn2nc(C)cc2cc1C(=O)Nc1cnc(NCC2CNC(C)C2)nc1` (stereo not drawn) [Compound 566] gave an activation at 5 µM of less than 50%.
In the case of `CCOc1cn2nc(C)cc2cc1C(=O)Nc1cnc(NCCC2CC(F)(F)CN2)nc1` (stereo not drawn) [Compound 567], the activation at 5 µM is reported as less than 50%.
`CCOc1cn2nc(C)cc2cc1C(=O)Nc1cnc(N2CCC(N)(c3cccc(F)c3)C2)nc1` (stereo not drawn) [Compound 568] gave an activation at 5 µM of less than 50%.
`CCOc1cn2nc(C)cc2cc1C(=O)Nc1cnc(NCC(N)c2cc(F)cc(Cl)c2)nc1` (stereo not drawn) [Compound 569] gave an activation at 5 µM of less than 50%.
In the case of `CCOc1cn2nc(C)cc2cc1C(=O)Nc1cnc(NCC(N)c2ccc(F)cc2)nc1` (stereo not drawn) [Compound 570], the activation at 5 µM is reported as less than 50%.
Molecule `CCOc1cn2nc(C)cc2cc1C(=O)Nc1cnc(N2CC(N)C(C)(C)C2)nc1` (stereo not drawn) [Compound 571] has an activation at 5 µM of less than 50%.
`CCOc1cn2nc(C)cc2cc1C(=O)Nc1cnc(N2CCC3(CNCCO3)C2)nc1` (stereo not drawn) [Compound 572] showed an activation at 5 µM of less than 50%.
Molecule `CCOc1cn2nc(C)cc2cc1C(=O)Nc1cnc(N2CCCC(C)(CN)C2)nc1` (stereo not drawn) [Compound 573] has an activation at 5 µM of less than 50%.
Work on `CCOc1cn2nc(C)cc2cc1C(=O)Nc1cnc(N2CCCC2CNC)nc1` (stereo not drawn) [Compound 574] yielded an activation at 5 µM of less than 50%.
In the case of `CCOc1cn2nc(C)cc2cc1C(=O)Nc1cnc(N(C)C[C@H]2CCCN2)nc1` [Compound 575], the activation at 5 µM is reported as less than 50%.
`CCOc1cn2nc(C)cc2cc1C(=O)Nc1cnc(N(C)C[C@@H]2CCCN2)nc1` [Compound 576] showed an activation at 5 µM of less than 50%.
`CCOc1cn2nc(C)cc2cc1C(=O)Nc1cnc(N2CCOC3(CCNC3)C2)nc1` (stereo not drawn) [Compound 577] showed an activation at 5 µM of less than 50%.
`CCOc1cn2nc(C)cc2cc1C(=O)Nc1cnc(N2CCCC3(CCNC3)C2)nc1` (stereo not drawn) [Compound 578] was tested, and the activation at 5 µM was less than 50%.
For `CCOc1cn2nc(C)cc2cc1C(=O)Nc1cnc(N2CCC3(CCCN3)CC2)nc1` [Compound 579], the activation at 5 µM was greater than 75%.
Molecule `CCOc1cn2nc(C)cc2cc1C(=O)Nc1cnc(N(C)CC2CCCN2)nc1` (stereo not drawn) [Compound 581] has an activation at 5 µM of less than 50%.
In the case of `CCOc1cn2nc(C)cc2cc1C(=O)Nc1cnc(N(C)CCN2CCNCC2)nc1` [Compound 582], the activation at 5 µM is reported as less than 50%.
For `CCOc1cn2nc(C)cc2cc1C(=O)Nc1cnc(N(C)CC2CCNC2)nc1` (stereo not drawn) [Compound 583], the activation at 5 µM was less than 50%.
In the case of `CCOc1cn2nc(C)cc2cc1C(=O)Nc1cnc(N2CCC3(CC2)CNCCO3)nc1` [Compound 584], the activation at 5 µM is reported as less than 50%.
`CCOc1cn2nc(C)cc2cc1C(=O)Nc1cnc(N2CCOC3(CCNCC3)C2)nc1` [Compound 587] showed an activation at 5 µM of less than 50%.
In the case of `CCOc1cn2nc(C)cc2cc1C(=O)Nc1cnc(NCCC2CCCCN2)nc1` (stereo not drawn) [Compound 588], the activation at 5 µM is reported as less than 50%.
Work on `CCOc1cn2nc(C)cc2cc1C(=O)Nc1cnc(N2C[C@H]3CNC[C@H]3C2)nc1` [Compound 590] yielded an activation at 5 µM greater than 75%.
`CCOc1cn2nc(C)cc2cc1C(=O)Nc1cnc(N2CCCC(NC)C2)nc1` (stereo not drawn) [Compound 591] was tested, and the activation at 5 µM was less than 50%.
`CCOc1cn2nc(C)cc2cc1C(=O)Nc1cnc(NCCNC)nc1` [Compound 592] was tested, and the activation at 5 µM was less than 50%.
Work on `CCOc1cn2nc(C)cc2cc1C(=O)Nc1cnc(NC[C@H]2CCCN2)nc1` [Compound 593] yielded an activation at 5 µM of less than 50%.
For `CCOc1cn2nc(C)cc2cc1C(=O)Nc1cnc(N2CCNCC2)nc1` [Compound 594], the activation at 5 µM was 50 to 75%.
Molecule `CCOc1cn2nc(C)cc2cc1C(=O)Nc1cnc(N2CC(N)C2)nc1` [Compound 595] has an activation at 5 µM of less than 50%.
`CCOc1cn2nc(C)cc2cc1C(=O)Nc1cnc(N2CCN[C@@H](C)C2)nc1` [Compound 596] showed an activation at 5 µM of 50 to 75%.
`CCOc1cn2nc(C)cc2cc1C(=O)Nc1cnc(N2CCC(N)CC2)nc1` [Compound 597] gave an activation at 5 µM of less than 50%.
Molecule `CCOc1cn2nc(C)cc2cc1C(=O)Nc1cnc(NCC2CCCNC2)nc1` (stereo not drawn) [Compound 598] has an activation at 5 µM of less than 50%.
`CCOc1cn2nc(C)cc2cc1C(=O)Nc1cnc(N(C)CCNC)nc1` [Compound 599] showed an activation at 5 µM of less than 50%.
Work on `CCOc1cn2nc(C)cc2cc1C(=O)Nc1cnc(N2CCCNCC2)nc1` [Compound 600] yielded an activation at 5 µM of less than 50%.
`CCOc1cn2nc(C)cc2cc1C(=O)Nc1cnc(N2CCCC(CCC3CCCNC3)C2)nc1` (stereo not drawn) [Compound 603] was tested, and the activation at 5 µM was less than 50%.
`CCOc1cn2nc(C)cc2cc1C(=O)Nc1cnc(N2CCNCC3(CC3)C2)nc1` [Compound 604] gave an activation at 5 µM of less than 50%.
Molecule `CCOc1cn2nc(C)cc2cc1C(=O)Nc1cnc(N2CC3C4CCC(NC4)C3C2)nc1` (stereo not drawn) [Compound 605] has an activation at 5 µM of less than 50%.
Work on `CCOc1cn2nc(C)cc2cc1C(=O)Nc1cnc(N2CCC(C3NCC3(C)C)CC2)nc1` (stereo not drawn) [Compound 606] yielded an activation at 5 µM of less than 50%.
`CCOc1cn2nc(C)cc2cc1C(=O)Nc1cnc(N2CCC(CCN3CCNCC3)CC2)nc1` [Compound 607] was tested, and the activation at 5 µM was less than 50%.
`CCOc1cn2nc(C)cc2cc1C(=O)Nc1cnc(N2CCNC(CS(C)(=O)=O)C2)nc1` (stereo not drawn) [Compound 608] was tested, and the activation at 5 µM was less than 50%.
For `CCOc1cn2nc(C)cc2cc1C(=O)Nc1cnc(N2CCC(C(O)C3CCNCC3)CC2)nc1` (stereo not drawn) [Compound 609], the activation at 5 µM was less than 50%.
Work on `CCOc1cn2nc(C)cc2cc1C(=O)Nc1cnc(N2CCC(C3CCCNC3)CC2)nc1` (stereo not drawn) [Compound 610] yielded an activation at 5 µM of less than 50%.
Molecule `CCOc1cn2nc(C)cc2cc1C(=O)Nc1cnc(N2CCC3CCNCC3C2)nc1` (stereo not drawn) [Compound 611] has an activation at 5 µM of less than 50%.
With `CCOc1cn2nc(C)cc2cc1C(=O)Nc1cnc(N2CC(NC)C3(CC3)C2)nc1` (stereo not drawn) [Compound 612] the activation at 5 µM was less than 50%.
For `CCOc1cn2nc(C)cc2cc1C(=O)Nc1cnc(N2CCOC3(CCCNC3)C2)nc1` (stereo not drawn) [Compound 613], the activation at 5 µM was less than 50%.
Work on `CCOc1cn2nc(C)cc2cc1C(=O)Nc1cnc(N2CCC(CC[C@@H]3CCCN3)CC2)nc1` [Compound 615] yielded an activation at 5 µM of less than 50%.
For `CCOc1cn2nc(C)cc2cc1C(=O)Nc1cnc(N2CC[C@@H](C)[C@@H](NC)C2)nc1` [Compound 617], the activation at 5 µM was less than 50%.
In the case of `CCOc1cn2nc(C)cc2cc1C(=O)Nc1cnc(N2CCC(COC3CCNC3)CC2)nc1` (stereo not drawn) [Compound 618], the activation at 5 µM is reported as less than 50%.
Work on `CCOc1cn2nc(C)cc2cc1C(=O)Nc1cnc(N2CC[C@@H]3CNC[C@@H]3CC2)nc1` [Compound 619] yielded an activation at 5 µM of less than 50%.
`CCNCC1CCN(c2ncc(NC(=O)c3cc4cc(C)nn4cc3OCC)cn2)CC1` [Compound 623] gave an activation at 5 µM of less than 50%.
Work on `CCOc1cn2nc(C)cc2cc1C(=O)Nc1cnc(N2CC3(CCNCC3)C2)nc1` [Compound 625] yielded an activation at 5 µM of 50 to 75%.
Work on `CCOc1cc2nc(C)cn2cc1C(=O)Nc1cnc(N2CCC(N)(CC)CC2)nc1` [Compound 639] yielded an activation at 5 µM greater than 75%.
Molecule `CCOc1cc2nc(C)cn2cc1C(=O)Nc1cnc(N2CC(C)NCC2C)nc1` (stereo not drawn) [Compound 644] has an activation at 5 µM of 50 to 75%.

Same assay, conditions: Homo sapiens; mini-gene firefly luciferase reporter in HEK293 cells
`COc1cc2nc(C)cn2cc1C(=O)Nc1ccc(N2CCNCC2C(F)F)cc1F` (stereo not drawn) [Compound 627] was tested, and the IC50 was 1000 to 10000 nM.
`COc1cc2nc(C)cn2cc1C(=O)Nc1ccc(N2C[C@@H]3C[C@H]2CN3)cc1F` [Compound 628] gave an IC50 of less than 1000 nM.
`COc1cc2nc(C)cn2cc1C(=O)Nc1ccc(N2CC[C@@H]3NCC[C@@H]3C2)cc1F` [Compound 629] gave an IC50 of less than 1000 nM.
`COc1cc2nc(C)cn2cc1C(=O)Nc1ccc(N2C[C@H]3CNCC[C@H]3C2)cc1F` [Compound 630] showed an IC50 of less than 1000 nM.

Reference: patent publication US20250066389A1, “HETEROCYCLIC AMIDES AND METHODS OF USING THE SAME” (Rgenta Therapeutics, Inc., priority 2021, published 2025)
